Measurements published in the NIST ThermoML archive (doi:10.1021/acs.jced.7b01125).

Assay: xn = mol fraction of the nth substance listed
Settings: Gas, Buoyancy - hydrostatic balance with magnetic suspension - one sinker

[HH] [hydrogen] + C
Settings | mass density [kg/m3]
324.96 K, 10000 kPa, x2 = 0.9 | 58.331
324.96 K, 11000 kPa, x2 = 0.4997 | 36.202
324.96 K, 11001 kPa, x2 = 0.9 | 64.438
324.96 K, 12002 kPa, x2 = 0.4997 | 39.381
324.96 K, 12003 kPa, x2 = 0.9 | 70.531
324.96 K, 12999 kPa, x2 = 0.4997 | 42.522
324.96 K, 13002 kPa, x2 = 0.9 | 76.592
324.96 K, 14000 kPa, x2 = 0.4997 | 45.642
324.96 K, 14001 kPa, x2 = 0.9499 | 88.324
324.96 K, 14003 kPa, x2 = 0.9 | 82.625
324.96 K, 14998 kPa, x2 = 0.4997 | 48.72
324.96 K, 15000 kPa, x2 = 0.9 | 88.578
324.96 K, 15003 kPa, x2 = 0.9499 | 94.801
324.96 K, 15999 kPa, x2 = 0.4997 | 51.775
324.96 K, 16001 kPa, x2 = 0.9 | 94.491
324.96 K, 16003 kPa, x2 = 0.9499 | 101.187
324.96 K, 16999 kPa, x2 = 0.4997 | 54.795
324.96 K, 16999 kPa, x2 = 0.9 | 100.301
324.96 K, 17994 kPa, x2 = 0.4997 | 57.761
324.96 K, 18000 kPa, x2 = 0.9499 | 113.635
324.96 K, 18006 kPa, x2 = 0.9 | 106.065
324.96 K, 19001 kPa, x2 = 0.9 | 111.659
324.96 K, 19002 kPa, x2 = 0.4997 | 60.728
324.96 K, 19004 kPa, x2 = 0.9499 | 119.703
324.96 K, 19631 kPa, x2 = 0.4997 | 62.562
324.96 K, 19902 kPa, x2 = 0.9 | 116.626
324.96 K, 19924 kPa, x2 = 0.9499 | 125.148
324.97 K, 999 kPa, x2 = 0.9499 | 5.733
324.97 K, 1999 kPa, x2 = 0.9499 | 11.594
324.97 K, 2985 kPa, x2 = 0.9499 | 17.488
324.97 K, 3998 kPa, x2 = 0.9499 | 23.665
324.97 K, 4999 kPa, x2 = 0.9499 | 29.867
324.97 K, 5999 kPa, x2 = 0.9499 | 36.165
324.97 K, 6999 kPa, x2 = 0.9499 | 42.544
324.97 K, 7999 kPa, x2 = 0.9499 | 49.004
324.97 K, 10000 kPa, x2 = 0.9499 | 62.076
324.97 K, 11004 kPa, x2 = 0.9499 | 68.681
324.97 K, 12002 kPa, x2 = 0.9499 | 75.249
324.97 K, 13002 kPa, x2 = 0.9499 | 81.811
324.97 K, 17001 kPa, x2 = 0.9499 | 107.464
349.95 K, 999 kPa, x2 = 0.9 | 5.061
349.95 K, 999 kPa, x2 = 0.9499 | 5.309
349.95 K, 1003 kPa, x2 = 0.4997 | 3.109
349.95 K, 1999 kPa, x2 = 0.9 | 10.188
349.95 K, 1999 kPa, x2 = 0.9499 | 10.702
349.95 K, 2004 kPa, x2 = 0.4997 | 6.207
349.95 K, 2985 kPa, x2 = 0.9 | 15.301
349.95 K, 2999 kPa, x2 = 0.9499 | 16.173
349.95 K, 3002 kPa, x2 = 0.4997 | 9.284
349.95 K, 3999 kPa, x2 = 0.9 | 20.614
349.95 K, 4000 kPa, x2 = 0.9499 | 21.712
349.95 K, 4004 kPa, x2 = 0.4997 | 12.364
349.95 K, 4999 kPa, x2 = 0.9 | 25.902
349.95 K, 4999 kPa, x2 = 0.9499 | 27.309
349.95 K, 5003 kPa, x2 = 0.4997 | 15.42
349.95 K, 5998 kPa, x2 = 0.9 | 31.226
349.95 K, 5998 kPa, x2 = 0.9499 | 32.957
349.95 K, 6002 kPa, x2 = 0.4997 | 18.469
349.95 K, 6998 kPa, x2 = 0.9 | 36.584
349.95 K, 7000 kPa, x2 = 0.9499 | 38.671
349.95 K, 7001 kPa, x2 = 0.4997 | 21.49
349.95 K, 7998 kPa, x2 = 0.9499 | 44.399
349.95 K, 7999 kPa, x2 = 0.9 | 41.97
349.95 K, 8001 kPa, x2 = 0.4997 | 24.491
349.95 K, 8997 kPa, x2 = 0.9 | 47.361
349.95 K, 8997 kPa, x2 = 0.9499 | 50.163
349.95 K, 9000 kPa, x2 = 0.4997 | 27.473
349.95 K, 9996 kPa, x2 = 0.9499 | 55.938
349.95 K, 9999 kPa, x2 = 0.4997 | 30.433
349.95 K, 10000 kPa, x2 = 0.9 | 52.782
349.95 K, 10999 kPa, x2 = 0.9499 | 61.741
349.95 K, 11000 kPa, x2 = 0.9 | 58.181
349.95 K, 11001 kPa, x2 = 0.4997 | 33.381
349.95 K, 11995 kPa, x2 = 0.4997 | 36.281
349.95 K, 11997 kPa, x2 = 0.9499 | 67.507
349.95 K, 12003 kPa, x2 = 0.9 | 63.582
349.95 K, 12996 kPa, x2 = 0.4997 | 39.178
349.95 K, 12998 kPa, x2 = 0.9499 | 73.267
349.95 K, 13000 kPa, x2 = 0.9 | 68.93
349.95 K, 13993 kPa, x2 = 0.4997 | 42.035
349.95 K, 13994 kPa, x2 = 0.9 | 74.229
349.95 K, 13998 kPa, x2 = 0.9499 | 78.993
349.95 K, 14997 kPa, x2 = 0.9499 | 84.669
349.95 K, 14998 kPa, x2 = 0.9 | 79.534
349.95 K, 15001 kPa, x2 = 0.4997 | 44.896
349.95 K, 15997 kPa, x2 = 0.9 | 84.764
349.95 K, 15998 kPa, x2 = 0.4997 | 47.697
349.95 K, 15998 kPa, x2 = 0.9499 | 90.284
349.95 K, 16997 kPa, x2 = 0.4997 | 50.454
349.95 K, 16998 kPa, x2 = 0.9499 | 95.842
349.95 K, 17000 kPa, x2 = 0.9 | 89.954
349.95 K, 17989 kPa, x2 = 0.4997 | 53.192
349.95 K, 17998 kPa, x2 = 0.9499 | 101.317
349.95 K, 19002 kPa, x2 = 0.4997 | 55.94
349.95 K, 19002 kPa, x2 = 0.9499 | 106.734
349.95 K, 19350 kPa, x2 = 0.9 | 101.832
349.95 K, 19873 kPa, x2 = 0.9499 | 111.352
349.95 K, 19933 kPa, x2 = 0.4997 | 58.441
